Source: publication PMC6789647, “α-Glucosidase Inhibitory Activity of Cycloartane-Type Triterpenes Isolated from Indonesian Stingless Bee Propolis and Their Structure–Activity Relationship” (Pharmaceuticals, 2019)

Assays:
α-glucosidase [1] = settings: cited from earlier work
[2] = molecular target: α-glucosidase from Saccharomyces cerevisiae (Saccharomyces cerevisiae, UniProt P53341); assay: Inhibitory activity assay for yeast α-glucosidase (pNPG substrate); type: biochemical
Experimental: The inhibitory activity of α-glucosidase from Saccharomyces cerevisiae (Sigma-Aldrich, Tokyo, Japan) of the isolation compounds was determined using a previously reported procedure with modifications. p-Nitrophenyl α-glucopyranoside (pNPG) (Sigma-Aldrich, Tokyo, Japan) was used as a substrate. Other chemicals used were of analytical grade. […] Then, 40 µL of 3 mM pNPG solution was added, and the mixture was incubated at 37 °C for 20 min. The reaction was stopped by adding a solution of Na2CO3 (0.1 M, 200 µL), and the absorbance (at 405 nm) of the resulting solution was measured via an Epoch microplate reader (Biotech, Tokyo, Japan). All experiments were performed in three independent replicates. The inhibition of isolated compounds on α-glucosidase was calculated as follows:(2) Inhibition (%)=(1−A1/A0)×100 where A0 is the absorbance of the control, and A1 is the absorbance of the propolis samples. The IC50 values were determined as the half-maximal inhibitory concentration of the inhibitor (isolated compound) which provides 50% inhibition.

[3] = tested on: α-glucosidase from the rat small intestine; assay: Inhibitory activity assay for rat intestinal α-glucosidase; type: biochemical; settings: for IC50: rat small intestine α-glucosidase, means ± SEs, n = 3, ND: not detected, isolated compounds tested at 0.1–10 µg/mL
Experimental: In a centrifuge tube at 4 °C, 200 mg of rat intestine acetone granules (Sigma-Aldrich, Tokyo, Japan) was placed in 8 mL of physiological saline (0.9 g of NaCl was dissolved in 100 mL pure water). The resulting suspension was homogenized with sonication equipment (Branson, Danbury, CT, USA) for 60 s (ultrasonic treatment cycles: 50, output control: 5) in an ice bath. The resulting homogenate was centrifuged (14,400× g, −21 °C for 20 min) with a high-speed refrigerated centrifuge (Himac CR21N, Hitachi Koki Co, Ltd., Tokyo, Japan). The resulting supernatant was used as an enzyme preparation, and stored at −30 °C until use. Then the measurement of inhibitory activity of isolated compounds against α-glucosidase from the rat small intestine followed the method used to measure the activity of yeast enzymes (S. cerevisiae). The concentration of the isolated compounds used is 0.1–10 µg/mL (0.2–23 µM).

[4] = DPPH free radical scavenging activity; settings: means ± SEs, n = 3; for DPPH IC50 / IC50: isolated compounds
Experimental: The antioxidative activities of the fractions were assayed for the scavenging of 2,2-diphenyl-1-picrylhydrazyl (DPPH) (Sigma-Aldrich, Darmstadt, Germany). Free radicals were assayed using a previously reported method [48] with some modifications. The fractions of EEP, isolated compounds and Trolox (Sigma-Aldrich, Darmstadt, Germany) were dissolved in methanol to make a 50 ppm solution. Each of the test sample solutions (0, 20, 40, 60, 80, and 100 µL) were added into a mixture (0.9 mL) of 0.4 mM DPPH solution, 20% methanol aqueous solution, and 0.2 M MES (2-(N-morpholino) ethanesulfonic acid) (Dojindo, Wako Junyaku Kogyo Co., Ltd., Osaka, Japan) buffer solution (1:1:1). The resulting mixtures were shaken on a vortex mixer and allowed to stand for 20 min. The absorbance of the remaining DPPH was measured with a microplate reader (Biotech, Tokyo, Japan) at 520 nm. […] The inhibitory concentration that results in 50% scavenging of DPPH radicals (IC50) was estimated based on the plot of inhibition versus the final concentration of the propolis samples. The results are expressed in µg Trolox Equivalents (TE) per mL.

α-glucosidase [5] = molecular target: α-glucosidase (Saccharomyces cerevisiae, UniProt P53341); assay: Determination of inhibitory type by kinetic analysis (Lineweaver–Burk, Dixon plots); type: biochemical; settings: for Inhibition Mode: Lineweaver–Burk plot, inhibitor 0, 0.2, 2 µg/mL, p-NPG substrate; for Ki’: mixed inhibition, affinity for enzyme–substrate
Sequence of α-glucosidase (Saccharomyces cerevisiae, UniProt P53341) (P53341 whole entry): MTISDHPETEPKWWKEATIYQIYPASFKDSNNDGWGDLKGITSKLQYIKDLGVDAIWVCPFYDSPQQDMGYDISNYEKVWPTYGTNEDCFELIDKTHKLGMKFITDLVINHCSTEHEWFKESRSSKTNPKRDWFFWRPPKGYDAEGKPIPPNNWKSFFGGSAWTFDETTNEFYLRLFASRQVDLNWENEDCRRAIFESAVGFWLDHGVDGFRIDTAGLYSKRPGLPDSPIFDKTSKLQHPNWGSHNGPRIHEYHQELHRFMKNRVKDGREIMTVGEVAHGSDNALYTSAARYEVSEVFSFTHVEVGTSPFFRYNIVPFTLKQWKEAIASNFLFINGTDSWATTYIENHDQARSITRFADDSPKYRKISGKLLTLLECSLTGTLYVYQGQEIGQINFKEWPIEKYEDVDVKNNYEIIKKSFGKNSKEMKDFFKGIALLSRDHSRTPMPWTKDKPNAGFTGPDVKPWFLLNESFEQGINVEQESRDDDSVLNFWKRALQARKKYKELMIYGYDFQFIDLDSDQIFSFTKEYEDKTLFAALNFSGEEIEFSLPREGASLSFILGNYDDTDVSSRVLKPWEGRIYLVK
Experimental: Inhibitory mechanisms of isolated triterpenes against α-glucosidase at some concentrations (0, 0.2, and 2 µg/mL) were analyzed by the Lineweaver–Burk plot (Figure 2 and Figure 3).
The inhibition activity of isolated triterpenes against α-glucosidase was measured with different concentrations (0, 1, 2.5, 5, and 10 mM) of p-NPG as a substrate in the presence or absence of different concentrations (0, 0.2, and 2 µg/mL) of the compounds. The mode of inhibition was then determined by Lineweaver–Burk plot analysis, which was calculated using Michaelis–Menten kinetics. Inhibition constants (Ki) were determined by analysis of Dixon plots and plots of the Y-intercept of the Lineweaver–Burk plot versus the inhibitor [44, 49]. All data are expressed as means ± standard errors of triplicate determinations.

Sequence of α-glucosidase from Saccharomyces cerevisiae (P53341 whole entry): as above

| Structure (SMILES) | inhibitory activity against α-glucosidase from the rat small intestine, in words [3] | DPPH IC50 [4] | IC50 [4] | Inhibition Mode (α-glucosidase [5]) | Ki’ (α-glucosidase [5]) | further results |
| --- | --- | --- | --- | --- | --- | --- |
| C=C(CC[C@@H](C)[C@H]1CC[C@@]2(C)[C@@H]3CC[C@H]4C(C)(C)C(=O)CC[C@@]45C[C@@]35CC[C@]12C)C(C)C [24-methylenecycloartenone] |  |  |  |  |  | IC50 (α-glucosidase [1]; isolated from Schisandra chinensis, read-out: IC50 against α-glucosidase): 2.36 µM |
| Oc1cc(O)c2c(c1)O[C@H](c1ccc(O)c(O)c1)[C@H](O)C2 [(–)-Epicatechin] | no inhibitory activity |  |  |  |  | inhibitory activity against α-glucosidase from the yeast (S. cerevisiae), in words [2]: showed inhibitory activity; inhibitory value on α-glucosidase (α-glucosidase [1]): around 96% |
| C[C@H]1O[C@H](O[C@H]2[C@H](O)[C@@H](O)[C@@H](O[C@H]3[C@H](O)[C@@H](O)C(O)O[C@@H]3CO)O[C@@H]2CO)[C@H](O)[C@@H](O)[C@@H]1N[C@H]1C=C(CO)[C@@H](O)[C@H](O)[C@H]1O (some centres unmarked) [Acarbose] | very high inhibitory activity |  |  |  |  | inhibitory activity against α-glucosidase from the yeast (S. cerevisiae), in words [2]: no activity at all; IC50 [3]: 209 ± 0.96 µM |
| C=C(CCC(C)C1CCC2(C)C3CCC4C(C)(C)C(O)CCC45CC35CCC12C)C(C)C(=O)O (centres unmarked) [Ambolic acid (5), ambolic acid] |  | 132.30 ± 13.9 µg/mL | 281 ± 29.5 µM | Mixed inhibition | 4.58 µM | Inhibition Mode (α-glucosidase [5]; listed as 5): mixed-type inhibition |
| C=C(CCC(C)C1CCC2(C)C3CCC4C(C)(C)C(=O)CCC45CC35CCC12C)C(C)C(=O)O (centres unmarked) [Ambonic acid (3), ambonic acid] |  | 42.45 ± 4.5 µg/mL | 90.6 ± 9.6 µM | Mixed inhibition | 6.42 µM | Inhibition Mode (α-glucosidase [5]; listed as 3): mixed-type inhibition |
| CC(C)=CCC[C@@H](C)[C@H]1CC[C@@]2(C)[C@@H]3CC[C@H]4C(C)(C)[C@@H](O)CC[C@@]45C[C@@]35CC[C@]12C [Cycloartenol (2), cycloartenol] |  | 120.21 ± 11.2 µg/mL | 282 ± 26.3 µM | Uncompetitive |  | Inhibition Mode (α-glucosidase [5]; listed as 2): uncompetitive inhibition |
| C/C(=C\CC[C@@H](C)[C@H]1CC[C@@]2(C)[C@@H]3CC[C@H]4C(C)(C)[C@@H](O)CC[C@@]45C[C@@]35CC[C@]12C)C(=O)O [Mangiferolic acid (1), mangiferolic acid] |  | 12.38 ± 3.0 µg/mL | 27.1 ± 6.57 µM | Uncompetitive |  | Inhibition Mode (α-glucosidase [5]; listed as 1): uncompetitive inhibition |
| C/C(=C\CC[C@@H](C)[C@H]1CC[C@@]2(C)[C@@H]3CC[C@H]4C(C)(C)C(=O)CC[C@@]45C[C@@]35CC[C@]12C)C(=O)O [Mangiferonic acid (4), mangiferonic acid] |  | 17.16 ± 2.98 µg/mL | 37.7 ± 6.55 µM | Mixed inhibition | 3.23 µM | Inhibition Mode (α-glucosidase [5]; listed as 4): mixed-type inhibition |
| Cc1c(C)c2c(c(C)c1O)CCC(C)(C(=O)O)O2 (centres unmarked) [Trolox, reference compound] |  | 7.17 ± 0.13 µg/mL | 28.6 ± 0.52 µM |  |  | Antioxidant Activity IC50 ([4]; DPPH, propolis fractions P1 and P2): 6.76 ± 0.395 µg/mL |
| OCC(CO)N[C@H]1C[C@](O)(CO)[C@@H](O)[C@H](O)[C@H]1O [Voglibose] | very high inhibitory activity |  |  |  |  | IC50 [3]: 78.6 ± 1.27 µM |
